Earlier results as cited in US6582498B1, “Method of separating carbon dioxide from a gas mixture using a fluid dynamic instability” (Battelle Memorial Institute, priority 2001, dated 2003).

SMILES: NCCO [MEA, monoethanolamine]
- LD50 (oral for rat) (rat): 2,050 mg/kg
- LD50 (intraperitoneal for mouse) (mouse): 50 mg/kg
- eye irritation (for rabbit) (rabbit): 0.763 milligrams
